The source of these data is patent US9370520B2, “Macrocyclic LRRK2 kinase inhibitors” (IPSEN PHARMA S.A.S., priority 2011, dated 2016).

Structures are written as SMILES. pIC50: −log10 of the molar value. Read-outs that look alike come from different tables or passages of the source.

For data set [1] the following is noted: amide bond, HBTU/DIPEA, DMF, 10.0 mM, 25.0 °C, 2.0 h.
The next data set has as its target T1, full-length LRRK2 (Homo sapiens, UniProt Q5S007).
T1 construct: full-length; made in house; host or cells: HEK293T
The data set is described as follows: LRRKtide 32P-ATP peptide kinase assay (Protocol 1), full-length LRRK2. In kind it is biochemical. As to conditions: 10 μM ATP, 200 μM lrrktide. The procedure:
(§1) The inhibition of LRRK2 and LRRK1 kinase was assessed using LRRK2 and LRRK1 recombinant protein in an in vitro peptide-based kinase assay.
(§2) LRRK2 protein is prepared as described in Daniëls et al. ((2011) J Neurochem 116, 304-315.). HEK293T cells are transfected with pCHMWS-3xflag-LRRK2 plasmid using polyethyleneimine and lysed after 48-72 hours in lysis buffer (Tris 20 mM pH 7.5, NaCl 150 mM, EDTA 1 mM, Triton 1%, Glycerol 10%, protease inhibitor cocktail). Lysates are cleared by centrifugation at 20,000 g for 10 minutes and incubated with normal mouse IgGs bound to agarose beads to remove proteins aspecifically binding to agarose or mouse IgGs. After removal of the IgG bead slurry, lysates are incubated for 3 to 18 hours with flagM2 bound to agarose beads. Beads are washed 4 times with wash buffer (Tris 25 mM pH 7.5, NaCl 400 mM, Triton 1%) and rinsed in kinase buffer (Tris-HCl 25 mM pH 7.5, 10 mM MgCl2, 2 mM dithiothreitol (DTT), 0.02% triton, 5 mM beta-glycerophosphate, 0.1 mM Na3VO4). Proteins are eluted in 5 volumes of kinase buffer containing 100 μg/ml 3xflag peptide. For assays using purified protein bound to affinity resin, affinity beads are resuspended in an equal volume of kinase buffer unless otherwise indicated. Purity and concentration are assessed by SDS-PAGE (3-8% tris-acetate SDS gel) and Coomassie Brilliant Blue staining or silver staining. Alternatively, a truncated LRRK2 enzyme (GST tagged LRRK2 of amino acids 970-2527) and a truncated LRRK2-G2019S (GST tagged LRRK2-G2019S of amino acids 970-2527) are used.
For Irrktide phosphorylation, recombinant LRRK2 is incubated with 6 μCi of 32P-ATP (3000 Ci/mmol), 200 μM Irrktide, 10 μM ATP and compound or solvent per 40 μl reaction for 30 minutes at 30° C. Compounds are tested at concentrations ranging from […]; the final amount of DMSO in the kinase reaction is 1%. Reactions are stopped and spotted to P81 phosphocellulose paper and washed 4×10 minutes in 75 mM phosphoric acid. Lrrktide phosphorylation levels are measured via autoradiography. Kinase assays are performed for each condition in triplicate. […]

Data set [2] addresses T2, truncated LRRK2 (GST tagged LRRK2 of amino acids 970-2527) (Homo sapiens, UniProt Q5S007).
T2 construct: GST tagged LRRK2 of amino acids 970-2527; GST
The data set is described as follows: LRRKtide 32P-ATP peptide kinase assay (Protocol 1), truncated LRRK2. In kind it is biochemical. The following applies: 10 μM ATP, 200 μM lrrktide. The method, then:
as §1, §2
(§3) For Irrktide phosphorylation, recombinant LRRK2 is incubated with 6 μCi of 32P-ATP (3000 Ci/mmol), 200 μM Irrktide, 10 μM ATP and compound or solvent per 40 μl reaction for 30 minutes at 30° C. Compounds are tested at concentrations ranging from […]; the final amount of DMSO in the kinase reaction is 1%. Reactions are stopped and spotted to P81 phosphocellulose paper and washed 4×10 minutes in 75 mM phosphoric acid. Lrrktide phosphorylation levels are measured via autoradiography. Kinase assays are performed for each condition in triplicate.
(§4) LRRKtide phosphorylation levels are plotted vs. the log of the compound concentration and inhibition curves are fitted from which IC50 values are derived.

The target of data set [3] is T3, truncated LRRK2-G2019S (GST tagged LRRK2-G2019S of amino acids 970-2527) (Homo sapiens, UniProt Q5S007, G2019S).
T3 construct: GST tagged LRRK2-G2019S of amino acids 970-2527; GST
T3 sequence (Q5S007 970-2527 G2019S): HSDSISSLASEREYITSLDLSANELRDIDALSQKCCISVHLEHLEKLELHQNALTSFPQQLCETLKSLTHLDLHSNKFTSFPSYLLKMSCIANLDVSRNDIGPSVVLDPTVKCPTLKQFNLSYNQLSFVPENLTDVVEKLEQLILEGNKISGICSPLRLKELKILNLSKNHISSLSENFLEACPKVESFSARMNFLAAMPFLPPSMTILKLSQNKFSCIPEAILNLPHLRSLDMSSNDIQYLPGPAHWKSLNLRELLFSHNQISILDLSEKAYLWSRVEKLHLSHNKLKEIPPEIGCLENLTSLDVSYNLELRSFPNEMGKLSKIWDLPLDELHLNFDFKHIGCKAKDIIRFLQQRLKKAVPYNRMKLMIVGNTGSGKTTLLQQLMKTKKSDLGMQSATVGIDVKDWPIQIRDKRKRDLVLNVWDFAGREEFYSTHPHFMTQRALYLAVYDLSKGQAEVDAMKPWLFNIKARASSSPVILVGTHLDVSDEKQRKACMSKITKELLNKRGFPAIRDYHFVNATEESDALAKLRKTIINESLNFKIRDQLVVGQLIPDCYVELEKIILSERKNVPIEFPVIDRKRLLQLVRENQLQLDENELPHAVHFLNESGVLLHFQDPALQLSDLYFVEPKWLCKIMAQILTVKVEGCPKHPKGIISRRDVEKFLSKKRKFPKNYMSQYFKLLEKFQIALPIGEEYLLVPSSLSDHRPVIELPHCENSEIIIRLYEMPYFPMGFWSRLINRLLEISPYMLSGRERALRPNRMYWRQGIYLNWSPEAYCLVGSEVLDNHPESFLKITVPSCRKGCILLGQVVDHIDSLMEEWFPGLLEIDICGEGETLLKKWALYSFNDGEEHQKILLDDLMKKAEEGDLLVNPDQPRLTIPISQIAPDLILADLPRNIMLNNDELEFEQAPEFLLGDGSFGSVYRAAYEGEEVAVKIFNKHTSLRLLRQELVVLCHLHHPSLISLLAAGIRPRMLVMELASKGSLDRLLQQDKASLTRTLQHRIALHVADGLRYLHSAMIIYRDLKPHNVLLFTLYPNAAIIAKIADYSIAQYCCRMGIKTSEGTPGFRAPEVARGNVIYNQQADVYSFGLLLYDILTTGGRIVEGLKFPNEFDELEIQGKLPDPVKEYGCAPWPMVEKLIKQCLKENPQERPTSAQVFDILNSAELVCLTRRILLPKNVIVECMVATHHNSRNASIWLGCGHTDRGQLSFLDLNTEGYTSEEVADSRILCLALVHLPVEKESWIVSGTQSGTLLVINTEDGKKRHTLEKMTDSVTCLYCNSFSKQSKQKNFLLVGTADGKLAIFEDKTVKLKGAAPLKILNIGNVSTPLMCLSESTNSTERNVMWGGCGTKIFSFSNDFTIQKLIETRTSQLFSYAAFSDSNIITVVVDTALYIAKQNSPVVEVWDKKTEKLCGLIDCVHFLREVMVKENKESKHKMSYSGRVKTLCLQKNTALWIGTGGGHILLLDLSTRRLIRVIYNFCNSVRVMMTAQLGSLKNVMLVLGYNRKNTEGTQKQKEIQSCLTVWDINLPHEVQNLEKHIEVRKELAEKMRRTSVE
The data set is described as follows: LRRKtide 32P-ATP peptide kinase assay (Protocol 1), truncated LRRK2-G2019S. It counts as biochemical. The following applies: 10 μM ATP, 200 μM lrrktide. The procedure: as §1, §2, §3, §4

T1 sequence (Q5S007 whole entry): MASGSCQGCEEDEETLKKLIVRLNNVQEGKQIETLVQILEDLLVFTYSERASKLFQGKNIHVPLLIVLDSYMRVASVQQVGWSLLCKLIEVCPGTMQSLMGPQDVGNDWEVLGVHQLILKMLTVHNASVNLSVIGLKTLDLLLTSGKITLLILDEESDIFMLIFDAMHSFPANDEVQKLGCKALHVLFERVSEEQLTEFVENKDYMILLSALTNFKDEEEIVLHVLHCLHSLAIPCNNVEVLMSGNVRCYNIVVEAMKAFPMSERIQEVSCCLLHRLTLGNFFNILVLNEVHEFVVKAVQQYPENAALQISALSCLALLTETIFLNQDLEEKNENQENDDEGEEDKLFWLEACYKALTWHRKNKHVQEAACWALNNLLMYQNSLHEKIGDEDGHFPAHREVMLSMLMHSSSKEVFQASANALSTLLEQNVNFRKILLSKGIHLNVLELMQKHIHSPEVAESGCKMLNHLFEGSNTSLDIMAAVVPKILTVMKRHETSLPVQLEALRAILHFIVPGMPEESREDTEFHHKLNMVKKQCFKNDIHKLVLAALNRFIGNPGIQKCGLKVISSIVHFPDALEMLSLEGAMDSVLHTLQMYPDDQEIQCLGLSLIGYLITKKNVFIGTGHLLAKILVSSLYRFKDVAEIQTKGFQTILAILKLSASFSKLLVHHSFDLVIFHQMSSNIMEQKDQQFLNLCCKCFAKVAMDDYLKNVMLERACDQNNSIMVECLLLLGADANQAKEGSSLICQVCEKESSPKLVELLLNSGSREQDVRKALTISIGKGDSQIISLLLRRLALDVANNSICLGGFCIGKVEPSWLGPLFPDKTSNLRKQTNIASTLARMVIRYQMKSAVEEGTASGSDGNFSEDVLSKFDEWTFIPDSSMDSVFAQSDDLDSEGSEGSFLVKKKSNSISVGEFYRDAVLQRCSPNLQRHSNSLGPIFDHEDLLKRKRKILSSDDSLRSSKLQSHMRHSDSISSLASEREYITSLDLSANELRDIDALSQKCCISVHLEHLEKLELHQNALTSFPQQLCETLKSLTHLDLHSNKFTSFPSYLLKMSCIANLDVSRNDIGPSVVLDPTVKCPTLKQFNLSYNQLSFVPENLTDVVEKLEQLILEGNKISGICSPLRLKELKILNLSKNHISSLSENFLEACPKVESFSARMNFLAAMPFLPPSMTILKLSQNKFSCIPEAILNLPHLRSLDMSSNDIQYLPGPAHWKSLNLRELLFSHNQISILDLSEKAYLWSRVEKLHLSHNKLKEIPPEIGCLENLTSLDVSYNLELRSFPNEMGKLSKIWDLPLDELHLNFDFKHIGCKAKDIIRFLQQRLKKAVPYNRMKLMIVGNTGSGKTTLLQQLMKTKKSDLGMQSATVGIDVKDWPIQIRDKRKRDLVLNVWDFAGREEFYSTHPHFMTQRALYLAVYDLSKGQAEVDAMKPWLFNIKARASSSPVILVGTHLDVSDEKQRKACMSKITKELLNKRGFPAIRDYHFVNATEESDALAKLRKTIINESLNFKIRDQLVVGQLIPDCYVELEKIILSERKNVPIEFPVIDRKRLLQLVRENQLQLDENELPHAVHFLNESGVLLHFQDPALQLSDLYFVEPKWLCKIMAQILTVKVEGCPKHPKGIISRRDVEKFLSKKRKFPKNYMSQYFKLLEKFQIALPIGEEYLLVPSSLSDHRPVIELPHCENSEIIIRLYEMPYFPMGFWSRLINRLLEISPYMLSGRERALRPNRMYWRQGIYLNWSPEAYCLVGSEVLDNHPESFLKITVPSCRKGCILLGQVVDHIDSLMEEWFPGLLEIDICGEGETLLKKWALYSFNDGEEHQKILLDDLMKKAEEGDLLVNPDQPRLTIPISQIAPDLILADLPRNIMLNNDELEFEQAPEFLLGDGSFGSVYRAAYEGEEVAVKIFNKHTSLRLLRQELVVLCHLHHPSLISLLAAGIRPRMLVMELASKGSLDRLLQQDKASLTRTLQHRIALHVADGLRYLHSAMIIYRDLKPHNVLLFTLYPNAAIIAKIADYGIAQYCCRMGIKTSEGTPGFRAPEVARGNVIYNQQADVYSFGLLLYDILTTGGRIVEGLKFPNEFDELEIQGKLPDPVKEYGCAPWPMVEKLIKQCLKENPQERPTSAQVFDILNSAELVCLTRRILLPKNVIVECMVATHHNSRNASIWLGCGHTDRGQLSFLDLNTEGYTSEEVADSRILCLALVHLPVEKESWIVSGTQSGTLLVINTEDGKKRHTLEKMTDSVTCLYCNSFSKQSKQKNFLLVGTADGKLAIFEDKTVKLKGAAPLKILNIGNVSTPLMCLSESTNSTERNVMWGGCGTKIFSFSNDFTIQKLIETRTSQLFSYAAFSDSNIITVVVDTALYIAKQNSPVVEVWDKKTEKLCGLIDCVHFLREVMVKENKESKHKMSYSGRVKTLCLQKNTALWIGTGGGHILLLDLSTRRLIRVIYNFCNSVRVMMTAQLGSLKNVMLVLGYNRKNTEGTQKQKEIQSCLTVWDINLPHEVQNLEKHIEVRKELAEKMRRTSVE
T2 sequence (Q5S007 970-2527): as the sequence (Q5S007 970-2527 G2019S) above, with S1050G counted along it

What is called melting point is the temperature, or range, at which the solid turns liquid. The molecule `O=C1CNc2ccn3ncc(c3n2)-c2cccc(c2)OCCCCN1` gave a melting point of more than 300 °C. The molecule further gave a ring closure, yield of all isomers in data set [1] (from NCCCCOc1cccc(-c2cnn3ccc(NCC(=O)O)nc23)c1) of 19%.
The pIC50 is the IC50 on a negative log10 scale, so that one unit is a factor of ten. A low value points to a large IC50. For `CN1CCNc2ccn3ncc(c3n2)-c2cccc(c2)OCC1=O` [Example 5], the melting point was more than 300 °C. Also, the pIC50 on full-length LRRK2 was 6.00 to 7.00. For the same molecule, the pIC50 in data set [2] was 6.00 to 7.00. This molecule also gave a pIC50 in data set [3] of 6.00 to 7.00.
Take `O=C1CCCOc2cccc(c2)-c2cnn3ccc(nc23)NCCN1` [Example 2]: the melting point was more than 300 °C. Besides, the negative-log IC50 (pIC50) at full-length LRRK2 is more than 7.00. Besides, the negative-log IC50 (pIC50) in data set [2] is 6.00 to 7.00. For the same molecule, the pIC50 in data set [3] is 6.00 to 7.00.
`O=C1CCNc2ccn3ncc(c3n2)-c2cccc(c2)OCCN1` [Example 3] came in with a melting point of more than 300 °C. Moreover, the pIC50 on full-length LRRK2 is more than 7.00. Also, the pIC50 in data set [2] is more than 7.00. This molecule gave a negative-log IC50 (pIC50) in data set [3] of more than 7.00.
As to `O=C1CNc2ccn3ncc(c3n2)-c2cccc(c2)OCCOCCN1` [Compound 72], the melting point came to 272.5 °C. This molecule displayed a ring closure, yield of all isomers in data set [1] (from NCCOCCOc1cccc(-c2cnn3ccc(NCC(=O)O)nc23)c1) of 30%.
